Measurements reported in patent publication US20260265694A1, “USE OF A VITISIN COMPOUND FOR THE PRODUCTION OF HEMATOPOIETIC CELLS” (ETABLISSEMENT FRANCAIS DU SANG, priority 2022, published 2026).

Tested on: CD34+ cells from peripheral blood
Test: AMPLIFICATION PROTOCOL: ex vivo amplification of hematopoietic progenitors
Format: cell-based, human
Details: 10 μM, FIG. 1
Method: This is a strategy for the amplification of hematopoietic progenitors. The culture is formed as follows: CD34^+ cells from peripheral blood are isolated (as indicated in section II.A.1), and cultured for 12 days in Stem Span II medium (Stem Cell Technologies) supplemented with cytokines: SCF 100 ng/mL, FLT3-L 100 ng/mL, TPO 20 ng/mL, G-CSF 10 ng/mL. The amplification product is analyzed by quantification of proliferation (count on Malassez slides) and phenotypic analysis of CD34^+ cell subpopulations by flow cytometry. […] Vitisin B is also compared with the following stilbene-type molecules at 10 μM concentration: Resveratrol, Pallidol, E-Viniferin, Ampelopsin, Oxyresveratrol, Picateatannol, Gnetol
At the end of the hematopoietic cell amplification protocol, an analysis of cell proliferation and amplification of immature and committed cell populations is performed.
Cell proliferation is evaluated by counting cells on Malassez slides with Trypan blue exclusion of dead cells.
The amplification of cell populations is based on a phenotypic analysis relating to the evolution of the expression of membrane markers CD34 and CD133 by flow cytometry. These markers make it possible to define more or less immature cell populations organized hierarchically as follows: CD34^+CD133^+->CD34^+CD133^neg->CD34^negCD133^neg. To this end, cells are incubated with anti-CD34 (1:100,000) (BD Pharmingen) and anti-CD133 (1:100,000) (BD Pharmingen) antibodies for 15 minutes. The cells are then rinsed with a PBS solution and centrifuged (430×g, 10 min, 4° C.). After resuspension of the cell pellets in PBS, the cells are analyzed by flow cytometry (FACSCantoll, Becton Dickinson, San Jose, CA).
The proportions of each phenotypic population thus observed and the total amount of cells make it possible to calculate the rate of amplification of the most immature cells (CD34^+CD133+) compared with the amplification of more committed progenitors (CD34^+CD133^neg and CD34^negCD133^neg).

Compound | amplification of the CD34+CD133neg subpopulation (erythrocyte potential)
Oc1ccc(C=Cc2cc(O)cc(O)c2)cc1 [RESVERATROL, Resveratrol] | no effect

Same assay, conditions: 10 μM, FIG. 2

Compound | effect on the proportion and total amount of CD34+CD133neg cells
O=C1c2c(O)cc(O)cc2O[C@H](c2cc(O)c(O)c(O)c2)[C@H]1O [AMPELOPSIN, Ampelopsin] | only vitisin B has a convincing effect
Oc1ccc(/C=C/c2cc(O)cc3c2[C@@H](c2cc(O)cc(O)c2)[C@H](c2ccc(O)cc2)O3)cc1 [E-VINIFERIN, E-Viniferin] | only vitisin B has a convincing effect
Oc1cc(O)cc(/C=C/c2c(O)cccc2O)c1 [GNETOL, Gnetol] | only vitisin B has a convincing effect
Oc1cc(O)cc(/C=C/c2ccc(O)cc2O)c1 [OXYRESVERATROL, Oxyresveratrol] | only vitisin B has a convincing effect
Oc1ccc(C=Cc2cc(O)cc(O)c2)cc1 [RESVERATROL, Resveratrol] | only vitisin B has a convincing effect
